Results on 2 compounds are retold here after patent publication US20120095055A1, “HEXAHYDROCYCLOPENTYL[f]INDAZOLE 5-HYDROXYMETHYL ETHANOLS AND DERIVATIVES THEREOF AS SELECTIVE GLUCOCORTICOID RECEPTOR MODULATORS” (Merck Sharp & Dohme, Corp., priority 2009, published 2012).

In this test the target is T1, human GR (Homo sapiens, UniProt P04150).
T1 construct: naturally expresses the human GR; endogenous in cells
T1 sequence (P04150 1-777): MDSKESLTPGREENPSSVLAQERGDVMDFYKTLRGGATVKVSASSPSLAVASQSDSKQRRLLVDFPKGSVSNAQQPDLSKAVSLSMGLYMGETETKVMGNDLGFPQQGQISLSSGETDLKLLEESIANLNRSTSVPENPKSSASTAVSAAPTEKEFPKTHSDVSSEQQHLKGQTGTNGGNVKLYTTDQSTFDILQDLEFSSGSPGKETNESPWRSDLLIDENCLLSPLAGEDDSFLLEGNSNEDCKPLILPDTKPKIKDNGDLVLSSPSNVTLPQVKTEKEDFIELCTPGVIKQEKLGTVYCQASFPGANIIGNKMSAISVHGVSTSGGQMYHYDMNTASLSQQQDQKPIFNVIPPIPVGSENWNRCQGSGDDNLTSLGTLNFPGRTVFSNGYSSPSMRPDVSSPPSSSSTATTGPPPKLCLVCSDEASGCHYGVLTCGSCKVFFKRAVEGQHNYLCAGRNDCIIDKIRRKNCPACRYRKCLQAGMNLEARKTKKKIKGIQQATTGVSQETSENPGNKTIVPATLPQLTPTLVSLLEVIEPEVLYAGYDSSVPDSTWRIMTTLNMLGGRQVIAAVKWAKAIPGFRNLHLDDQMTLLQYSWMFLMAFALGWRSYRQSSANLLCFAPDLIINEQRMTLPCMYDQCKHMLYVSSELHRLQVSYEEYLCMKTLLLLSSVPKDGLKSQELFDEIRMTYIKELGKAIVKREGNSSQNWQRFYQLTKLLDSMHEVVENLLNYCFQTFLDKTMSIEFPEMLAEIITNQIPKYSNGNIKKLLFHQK
Description: Trans-Activation Modulation of Glucocorticoid Receptor Assay (GRAMMER), MMTV-LUC reporter in A549 cells. It counts as cell-based. As to conditions: for Transactivation A549 Cells GRAMMER Emax (%): Emax relative to the activity obtained with 300 nM dexamethasone; for EC50: inflection point (IP), MMTV-LUC reporter, read-out: Transactivation A549 Cells GRAMMER IP. From the text:
This assay assesses the ability of test compounds to control transcription from the MMTV-LUC reporter gene in lung adenocarcinoma A549 cells or HeLa cells, a human […] cell line that naturally expresses the human GR. The assay measures induction of a modified MMTV LTR/promoter linked to the LUC reporter gene.
The routine transient assay consists of plating 7,000-25,000 cells/well of a white, clear-bottom 96-well plate. Alternatively, 384-well plates can be used at a cell concentration of 10,000/well. The media that the cells are plated in is “exponential growth medium” which consists of phenol red-free RPMI1640 containing 10% FBS, 4 mM L-glutamine, 20 mM HEPES, 10 ug/mL human insulin, and 20 ug/mL gentamicin. Incubator conditions are 37° C. and 5% CO2. The transfection is done in batch mode. The cells are trypsinized and counted to the right cell number in the proper amount of fresh media. It is then gently mixed with the FuGene6/DNA mix and plated onto the 96 or 384-well plate, all the wells receive 100 uL or 40 uL, respectively, of medium+lipid/DNA complex then incubated 37° C. overnight. The transfection cocktail consists of serum-free OptiMEM, FuGene6 reagent and DNA. The manufacturer's (Roche Biochemical) protocol for cocktail setup is as follows: The lipid to DNA ratio is approximately 2.5:1 and the incubation time is 20 min at room temperature. Sixteen to 24 hours after transfection, the cells are treated with dexamethasone to a final concentration of 10 nM as well as the compound of interest, such that final DMSO (vehicle) concentration is equal to or less than 1%. Each plate also contains samples that are treated with 10 nM dexamethasone alone, which is used as the 100% activity control. The cells are exposed to the compounds for 24 hours. After 24 hours, the cells are lysed by a Promega cell culture lysis buffer for approximately 30 min and then the luciferase activity in the extracts is assayed in the 96-well format luminometer. In 384-well format, Steady-Glo (Promega) or Steady-Lite (PerkinElmer) can be used by adding an equal volume of reagent to the media present in each well. Activity induced by 10 nM dexamethasone alone is set at 100% activity. Antagonist activity is calculated by determining the decrease in dexamethasone-induced activity in response to compound treatment relative to samples that were treated with dexamethasone alone. Results are expressed as % inhibition of 10 nM dexamethasone activity or as fold of 10 nM dexamethasone activity. This transactivation assay can be performed in an agonist and antagonist mode to identify these different activities.
Activity of test compounds is calculated as the Emax relative to the activity obtained with 300 nM dexamethasone. Activity of test compounds is calculated as the Emax relative to the activity obtained with 300 nM DEX. The exemplified tissue selective glucocorticoid receptor modulators of the present invention display agonist activity in this assay of greater than 5% and less than 100%, and maximal transactivation activity less then maximal transrepression activity. […]

`C[C@]12Cc3cnn(-c4ccc(F)cc4)c3C=C1CC[C@@]2(CO)CC(O)C1CC1` (single isomer, unassigned) [Example 20a, 1-cyclopropyl-2-[(4αS)-1-(4-fluorophenyl)-5-(hydroxymethyl)-4α-methyl-1,4,4α,5,6,7-hexahydrocyclopenta[f]indazol-5-yl]ethanol]: the “Transactivation A549 Cells GRAMMER Emax (%)” value is given as 23.1% and the EC50 amounted to 187 nM.
On to `COc1cccnc1C(O)C[C@]1(CO)CCC2=Cc3c(cnn3-c3ccc(F)cc3)C[C@@]21C` (single isomer, unassigned) [Example 21b], for which the “Transactivation A549 Cells GRAMMER Emax (%)” value was 64.8% and the EC50 was found to be 40.2 nM.
